According to the METLIN SMRT retention time set (Domingo-Almenara et al. 2019):

Assay: gradient 5% acetonitrile 3 min, to 50% in 2 min, to 85% in 15 min, held 3 min, 100 µL/min
Details: column: Zorbax Extend-C18 2.1 x 50 mm; eluents: water / acetonitrile, 0.1% formic acid
Summary of the method: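 Standards, all pure, were combined into mixtures of ~100 molecules and run at 100 μL/min on a Zorbax Extend-C18 column (2.1 × 50 mm, 1.8 μm) with water and acetonitrile, each containing 0.1% formic acid. A coupled quadrupole time-of-flight mass spectrometer operated in positive and negative ionization mode. Retention time values come from computationally picked adduct peaks, each inspected manually.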

SMILES	RP-LC retention time
CCOC(=O)C1CCN(C(=O)CCC2CCCN(c3cc(NC4CC4)ncn3)C2)CC1 (stereo unspecified)	662 s
O=S(=O)(NC1CCCCC1)c1ccc(-c2nnc(C3CCC3)o2)o1	968 s
O=C(NCCN1CCCCC1)c1ccc2c(=O)n(-c3ccccc3)c(N3CCCC3)nc2c1	614 s
COc1cccc(Cc2nc(-c3cn(-c4ccc(F)cc4)nn3)no2)c1	994 s
CCC(=O)N1c2ccc(S(=O)(=O)CCC(=O)N3CCN(c4ccccc4F)CC3)cc2CC1C (stereo unspecified)	894 s
O=C(NCC1(c2cccs2)CCOCC1)c1cc(=O)c2ccccc2o1	716 s
COc1ccc(-c2noc(C3CCCN3C(=O)Nc3ccc(Cl)cc3)n2)cc1 (stereo unspecified)	920 s
CSc1cccc(NC(=O)C(=O)NCc2cccs2)c1	846 s
CCc1cc(=O)n(CC(=O)N2CCCc3ccccc32)c(N2CCOCC2)n1	781 s
COc1ccc(C(=O)CSc2nnc(-c3cc(C)oc3C)o2)cc1OC	911 s
CSc1ccc(NC(=O)COc2ccccc2)nn1	764 s
COc1cn(C)c(C(=O)NCCC(c2ccccc2)c2ccccc2)cc1=O	667 s
Cc1cccc(CNC2=NCCNC23CCN(S(=O)(=O)c2c(C)cc(C)cc2C)CC3)c1	846 s
Cc1cc(C)n(Cc2ccc(C(=O)N3CCN(c4cc(=O)n(C)c(=O)n4C)CC3)o2)n1	629 s
CC(C)(NS(=O)(=O)c1ccc(Oc2ccc(F)cc2)cc1)C(=O)NO	804 s
CCN1C(=O)c2cccnc2Sc2cc(NC(=O)c3cccc(C)c3)ccc21	870 s
Cc1cccc(-n2c(=O)c3c(cc(C)n3C)n(CC(=O)Nc3ccc(C)c(F)c3)c2=O)c1	866 s
O=S(=O)(c1ccc(Cl)cc1)N1CC(F)(F)C[C@H]1CN1CCc2ccccc2C1	647 s

SMILES	RP-LC retention time
CCc1nc(-c2csc(S(=O)(=O)N3CCCC(C(=O)Nc4ccc(C)cc4C)C3)c2)no1 (stereo unspecified)	1070 s
COc1ccc(-c2ncc3c(n2)CCN(S(=O)(=O)Cc2ccccc2)C3)cc1	976 s
O=S(=O)(c1ccccc1)N1CCC(c2noc(-c3ccc(F)cc3)n2)CC1	791 s
CCN(CC)S(=O)(=O)N1CCCC(C(=O)NCCc2ccc(Cl)cc2)C1 (stereo unspecified)	945 s
O=S(=O)(c1ccc(Br)cc1)N1CCNCC1	549 s
CCOC(=O)c1c(C)[nH]c(C(=O)N2CCC(CC(=O)NC3CCCCCC3)CC2)c1C	835 s
Cc1ccc(CNC(=O)c2cc3sccc3n2C)cc1	958 s
Cc1cc2n(n1)CCC(=O)N2CCCC(=O)N1CCOCC1	585 s
CCn1cc(-c2nc(C)c(C(=O)Nc3cccc(C)c3)s2)c2cccnc21	971 s
Cc1sc(NC(=O)c2cccnc2)nc1-c1ccc2c(c1)NC(=O)C(C)O2 (stereo unspecified)	718 s
CCOC(=O)C1CCN(C(=O)CCC(=O)N2CCCn3nc(C)cc32)CC1	646 s
CCn1c(N2CCCC(C(=O)N3CCN(Cc4ccc5c(c4)OCO5)CC3)C2)cc(=O)n(C)c1=O (stereo unspecified)	616 s
CC(C)CCNC(=O)C1(C)CN(S(=O)(=O)c2ccccc2)CC(=O)N1c1cccc(Cl)c1 (stereo unspecified)	1020 s
CC1CC(=O)N(CC(=O)Nc2cccc([N+](=O)[O-])c2)c2ccccc2S1 (stereo unspecified)	843 s
COc1ccc(Nc2nc(N)nc(CSc3nnc4sc5ccccc5n34)n2)cc1	692 s
CCC(NC(=O)Cc1cn(C)c2ncccc12)c1cccs1 (stereo unspecified)	709 s
CCCN1C(=O)c2cc(S(=O)(=O)Nc3ccccc3C)ccc2Oc2cccnc21	1080 s
Cn1ncc2c(N3CCSCC3)nc(C(=O)NCCc3ccccn3)nc21	572 s
